Measured values from patent publication US20260115250A1, “METHODS OF TREATING AGE-RELATED MACULAR DEGENERATION” (Character Biosciences, Inc., priority 2022, published 2026).
Peptide text beside a SMILES is read from it.

Key:
LDLR [1] = target: T1, LDLR (Homo sapiens, UniProt P01130); experiment: KD, Peptide (μM)
Source text: Table printed on a drawing sheet, FIG. 24B
Title: Buffer: HBS + 0.005% P20
Head of the field: KD, Peptide (μM)
The patent's description of the figure: FIGS. 24A-24B are tables showing the binding kinetics results of LDLR binding assays (SPR), lipid-dependent binding with a low-surfactant preparation as described herein for select peptides shown in FIG. 1A-1I.
First copying reader's note: Continued from FIG. 24A; KD values are LDLR binding by SPR for the peptide alone and for its DMPC lipid complex, with the error given in the same cell after ±.
Where the first naming reader finds the target: description_of_the_figure: FIGS. 24A-24B are tables showing the binding kinetics results of LDLR binding assays (SPR)
Target sequence in this assay (P01130 22-860 limits assumed): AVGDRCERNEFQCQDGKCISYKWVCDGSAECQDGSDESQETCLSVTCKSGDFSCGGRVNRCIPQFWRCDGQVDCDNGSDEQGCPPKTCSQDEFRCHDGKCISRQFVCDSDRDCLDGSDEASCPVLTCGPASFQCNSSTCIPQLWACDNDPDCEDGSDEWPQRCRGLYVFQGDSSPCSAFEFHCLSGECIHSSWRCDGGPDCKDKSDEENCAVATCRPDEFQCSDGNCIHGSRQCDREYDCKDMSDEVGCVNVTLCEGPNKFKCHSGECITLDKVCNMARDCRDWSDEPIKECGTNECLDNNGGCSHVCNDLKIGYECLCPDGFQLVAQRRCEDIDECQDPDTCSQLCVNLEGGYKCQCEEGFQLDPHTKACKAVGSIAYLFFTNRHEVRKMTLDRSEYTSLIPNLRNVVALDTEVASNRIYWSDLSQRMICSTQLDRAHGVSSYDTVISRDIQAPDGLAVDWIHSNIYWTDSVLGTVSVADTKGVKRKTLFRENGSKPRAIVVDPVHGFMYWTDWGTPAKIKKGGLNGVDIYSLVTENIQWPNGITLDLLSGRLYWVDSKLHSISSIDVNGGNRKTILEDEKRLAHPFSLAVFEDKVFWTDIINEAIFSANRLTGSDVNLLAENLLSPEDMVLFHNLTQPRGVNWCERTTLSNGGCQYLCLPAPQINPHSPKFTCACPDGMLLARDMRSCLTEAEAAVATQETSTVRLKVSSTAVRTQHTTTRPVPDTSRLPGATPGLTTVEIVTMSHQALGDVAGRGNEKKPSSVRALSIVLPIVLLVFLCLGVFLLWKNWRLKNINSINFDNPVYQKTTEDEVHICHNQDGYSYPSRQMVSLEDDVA

ARPE-19 cells = experiment: ARPE-19 cell viability assay (Cell Titer Glo); format: cell-based, human; details: 100 μM peptide, 1.5 hours
Method: ARPE-19 cells were seeded in 96-well plates at 25,000 cells/well and allowed to adhere to the plate surface for at least 24 hours. Peptides were diluted in serum-free DMEM: F12 to a final concentration of 100 μM. Cells were washed, then incubated in 100 μM peptide solution for 1.5 hours at 37° C. Plates were brought to room temperature for 30 minutes, then washed with DPBS. Cells were incubated in a 1:1 mixture of DPBS and Cell Titer Glo 2.0 Reagent for 10 minutes at room temperature, then cell luminescence was read on a plate reader. Viability values were background corrected, and 0% viability is determined by luminescence values of cells treated with 1% Triton-X-100. Data are presented as mean+SD over two separate runs.

HMC3 cells = experiment: HMC3 cholesterol efflux; format: cell-based, human
Method: (§1) FIGS. 27A-27B and FIG. 28 illustrate HMC3 cholesterol efflux. Fully confluent 96-well plates of HMC3 cells were treated for 1 hour in serum-free EMEM containing 10 mM methyl-β-cyclodextrin, 100 μM cholesterol, and 25 μM BODIPY cholesterol. Cells were then washed and incubated overnight in serum free EMEM containing 1 μM LXR agonist GW3965, 2 μg/mL ACAT inhibitor, and 0.2% BSA (LXR Agonist treated), or serum-free EMEM containing 2 μg/mL ACAT inhibitor, and 0.2% BSA (Control). Cells were washed and incubated with 20 μM peptides diluted in serum-free Fluorobrite DMEM for 4 hours at 37° C. Media was transferred to a new 96-well plate and fresh serum-free Fluorobrite DMEM was placed on the cells. Media and cellular fluorescence were read on a Promega GloMax at 475 nm excitation, 500-550 emission. Fluorescence values were background corrected from no treatment conditions and percent efflux was calculated by the following equation: % efflux=(Media Fluorescence values)/(Media+Cell Fluorescence values). Data are presented as mean+SD over two runs per peptide.
as §1, with “FIGS. 30A-30J show” for “FIGS. 27A-27B and FIG. 28 illustrate”, “cholesterol efflux titration curves for the indicated peptides.” for “cholesterol efflux.”, “μM” for “μM LXR agonist”, “or serum free” for “or serum-free”, “with 0-100” for “with 20”, “peptides serially” for “peptides”

[2] = DMPC solubility titration, 1 mM DMPC; format: biochemical; details: 3.16-100 μM peptides, 15 minutes
Method: FIGS. 4A-4B illustrate a screening assay based on DMPC solubility, measured by reducing turbidity of DMPC liposome solutions, for a subset of the peptides in FIGS. 1B-1I. FIGS. 4A-4B illustrate DMPC solubility titration curves. Peptide stocks were diluted to 200 μM in H2O (a 2× solution) and serially diluted in H2O over 4 concentrations, then 50 μL of peptide solutions were distributed in triplicate into 96-well plates. A 2 mM solution of 1,2-dimyristoyl-sn-glycero-3-phosphocholine (DMPC) in H2O was prepared, and using a multichannel pipet, 50 μL DMPC solution was rapidly added to the plate. Peptide and lipid solutions were incubated at room temperature for 15 minutes with final concentrations of 3.16-100 μM peptides and 1 mM DMPC. After 15 minutes, absorbance was read on a plate reader at 405 nm. […] Data are presented as mean+SD over two runs. Non-linear regression was used to calculate EC50 values.

[3] = DMPC solubility assay, 0.5 mM DMPC (turbidity reduction); format: biochemical; details: FIGS. 2A-2D and 3A-3C
Summary of the method: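 Peptides (100 μM final, or 3.16-100 μM for titrations) incubated with 0.5 mM DMPC in water for 15 minutes at room temperature. Turbidity read as absorbance at 405 nm; EC50 from non-linear regression, mean+SD over two runs.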

HepG2 cells = experiment: HepG2 GAG dependent cholesterol import (with or without heparin); format: cell-based; details: HepG2, 10 μM peptide, with or without 100 μg/mL heparin
Method: HepG2 cells were seeded on 96-well plates at 10,000 cells per well and grown to confluence. A 2× solution of 500 μM DMPC and 50 μM BODIPY-Cholesterol with or without 100 μg/mL heparin was prepared in serum free EMEM. Peptides were diluted to 20 μM in serum-free EMEM (a 2× solution). Peptides were added to lipid solution in equal parts (60 μL each) and incubated for 1 hour at 37° C. HepG2 cells were serum starved in serum-free EMEM for 1 hour at 37° C. Peptide: Lipid complexes (100 μL total volume per well) were transferred to HepG2 cells for 2 hours at 37° C. Cells were washed, fixed, and intracellular fluorescence was read on Promega GloMax at 475 nm excitation, 500-550 emission. Fluorescence values were background corrected from no treatment conditions. Data are presented ±SD for 2 runs.

[4] = peptide binding to non-oxidized and oxidized lipids (SPR); details: immobilized peptide; RU normalized to DMPC
Method: FIGS. 25A-25O show peptide binding activity to non-oxidized and oxidized lipids via SPR for indicated peptides. Peptides were reconstituted to 50 μg/mL in 10 mM acetate buffer, pH 4.5 and immobilized to ˜200 RU on a CM5 chip via amine coupling. Non-oxidized lipids (DMPC & POPC) and oxidized lipids (POVPC & KOdiA-PC) were diluted to 100 µM in HBS-EP running buffer and exposed to the chip for binding (n=3) at a flow rate of […] for 120 seconds. The surface was regenerated with 20% EtOH. T-001 served as a positive control and T-031 served as a negative control on each chip. For each peptide, the RU response for all lipids was normalized to the DMPC RU values.

LDLR [5] = target: T1, LDLR; experiment: lipid-dependent LDLR binding (SPR), single concentration; details: 1 μM peptide with or without 25 μM DMPC
Method: Peptides were diluted in 1×HBS-N buffer with 1 mM CaCl2 to a final concentration of 1 μM and incubated with or without 25 μM DMPC for 1 hour at RT to form lipid complexes. Each peptide was tested in duplicate. LDLR was diluted to 10 μg/mL in 10 mM acetate buffer pH 4.5 and was immobilized (˜400RU) on a CM5 chip via amine coupling utilizing 1×HBS-P+ buffer with 1 mM CaCl2. Test peptides (with or without DMPC) were exposed to immobilized LDLR at a flow rate of […] for 120 seconds in HBS-N with 1 mM CaCl2. Between cycles the surface was regenerated with 3, 30 second injections of 10 mM NaOH and 100 mM EDTA. Data are plotted as max RU values, averaged from three separate runs.
Target sequence in this assay (P01130 22-860): as the sequence (P01130 22-860 limits assumed) above

Molecule: CC(C)C[C@H](NC(=O)[C@H](Cc1c[nH]cn1)NC(=O)[C@H](CO)NC(=O)[C@H](C)NC(=O)[C@@H](N)CC(C)C)C(=O)N[C@@H](CCCNC(=N)N)C(=O)N[C@@H](CCCCN)C(=O)N[C@@H](CC(C)C)C(=O)N[C@@H](CCCNC(=N)N)C(=O)N[C@@H](CCCCN)C(=O)N[C@@H](CCCNC(=N)N)C(=O)N[C@@H](CC(C)C)C(=O)N[C@@H](CC(C)C)C(=O)N[C@@H](CCCNC(=N)N)C(=O)N[C@@H](CC(=O)O)C(=O)N[C@@H](C)C(=O)N[C@@H](CC(=O)O)C(=O)N[C@@H](CC(=O)O)C(=O)O [T-073]
- Kd (LDLR [1]): 4.27 ± 0.19 µM

Molecule: CC(C)C[C@H](NC(=O)[C@H](CCCNC(=N)N)NC(=O)[C@H](CC(=O)O)NC(=O)[C@@H](NC(=O)[C@H](CC(C)C)NC(=O)[C@H](CCCCN)NC(=O)[C@H](CC(=O)O)NC(=O)CNC(=O)[C@H](CC(=O)O)NC(=O)[C@H](CCCNC(=N)N)NC(=O)[C@H](CC(C)C)NC(=O)[C@H](CC(C)C)NC(=O)[C@H](CCCNC(=N)N)NC(=O)[C@H](CCCCN)NC(=O)[C@H](CCCNC(=N)N)NC(=O)[C@H](CC(C)C)NC(=O)[C@H](CCCCN)NC(=O)[C@H](CCCNC(=N)N)NC(=O)[C@H](CC(C)C)NC(=O)[C@@H](N)Cc1c[nH]cn1)C(C)C)C(=O)N[C@@H](C)C(=O)N[C@@H](CCC(=O)O)C(=O)N[C@@H](Cc1ccc(O)cc1)C(=O)N[C@H](C(=O)N[C@@H](C)C(=O)N[C@@H](CCCNC(=N)N)C(=O)N[C@@H](C)C(=O)N[C@@H](CCCCN)C(=O)N[C@@H](CCC(=O)O)C(=O)N[C@@H](C)C(=O)N[C@@H](Cc1ccccc1)C(=O)N[C@@H](CC(=O)O)C(=O)N[C@@H](CCCNC(=N)N)C(=O)O)C(C)C [T-077] (H-HLRKLRKRLLRDGDKLVDRLAEYVARAKEAFDR-OH)
- Kd (LDLR [1]): 33.2 ± 37.7 µM
- ARPE-19 cell viability (ARPE-19 cells): substantial change in viability

Molecule: REFRALFKELADYFRDAW [T-084, therapeutic peptide]
- cholesterol efflux titration (HMC3 cells; HMC3, 0-100 μM peptide, LXR agonist): concentration-dependent increase in cholesterol efflux
- cholesterol efflux in the presence of LXR agonist (HMC3 cells; HMC3, 20 μM peptide, 4 hours): greater cholesterol efflux
- EC50 [2]: 16.1 µM

Molecule: T-029: therapeutic peptide (HLRKLRKRLLRDGDKLCDRLAEYCARAKEAFDR)
- DMPC solubilizing activity [3]: significant activity
- GAG dependence of cholesterol import (HepG2 cells): rely on GAG binding for cholesterol import activity
- binding to oxidized lipids relative to DMPC [4]: binding to at least one oxidized lipid that was equivalent or improved to binding against DMPC
- lipid-dependent LDLR binding (RU with lipid vs peptide alone) (LDLR [5]): lipid-dependent LDLR binding activity
